One block for each molecule: values may come before it.
What was measured:
[1] = cited from earlier work
[2] = biological target: T1, factor Xa (Bos taurus, UniProt P00743); experiment: Kinetic measurements (Michaelis-Menten) of factor Xa substrates; assay type: biochemical
Experimental: (§1) Commercial substrate 1a, depicted in FIG. 2, was used as reference in the kinetic measurements. The kinetic values KM, kcat and kcat/KM were established for the fluorogenic compound 1 using Human Thrombin. In order to compare the results of 1 and 1a, the absorption of the released chromophores was measured during the enzymatic reaction (570 nm for resorufin and 380 nm for p-nitroaniline).
(§2) The same parameters were also determined for 1 by measuring the emission of resorufin at 583 nm and similar values to the ones obtained from absorption were found (FIG. 5A).
A similar conjugate, with the same peptide sequence, but having p-nitroanilide as reporter, has a much higher KM (40 μM) and the enzyme has poorer catalytic efficiency for this substrate (2.7×10^6 M^−1 s^−1). Thus, compound 2 of the present invention performs better than the best factor Xa substrate so far reported.
The kinetic parameters were determined as described for the other substrates (cf. Example 4). The results of Michaelis-Menten kinetic is depicted in FIG. 13.

[3] = biological target: cytochrome C (Homo sapiens, UniProt P99999); experiment: Fluorescence specificity assay, cytochrome C; assay type: biochemical; conditions: Compound 1 5 μM, cytochrome C 100 pM
Experimental: (§3) The enzymatic reactions were carried out in 50 mM Tris buffer pH 8.3 and 130 mM NaCl.
(§4) the specificity of Compound 1 of the present invention toward thrombin was tested. Compound 1 (5 μM) was incubated in the presence of thrombin (100 pM) and some possible interfering proteases and proteins, like trypsin, factor Xa, myoglobin, cytochrome C and BSA (100 pM). The increase of fluorescence in response to factor Xa, myoglobin, cytochrome C and BSA was negligible (FIG. 6). […] A commercial assay can detect 1 pM thrombin, by fishing it out of plasma samples using microwells coated with DNA-aptamer. The AMC-based substrate is converted by thrombin to fluorescent product after the enrichment step. The fluorescence assay according to the present invention allowed the detection of thrombin at the concentrations as low as 0.5 pM in water solution (FIG. 7), which was achieved without any enrichment step.

[4] = biological target: T2, thrombin (Homo sapiens, UniProt P00734); experiment: Kinetic measurements with Human Thrombin; assay type: biochemical; conditions: absorption of released chromophore, 570 nm
Experimental: as §1, §2

[5] = biological target: T2, thrombin; experiment: Fluorescence assay for determination of thrombin in water (LOD); assay type: biochemical; conditions: in water solution, without enrichment step
Experimental: The mean change of resorufin fluorescence dF/min is plotted versus the corresponding thrombin concentration (in pM).
as §4

[6] = test system: trypsin; experiment: Fluorescence specificity assay, trypsin; assay type: biochemical; conditions: Compound 1 5 μM, trypsin 100 pM
Experimental: as §3, §4

[7] = biological target: BSA (Bos taurus, UniProt P02769); experiment: Fluorescence specificity assay, BSA; assay type: biochemical; conditions: Compound 1 5 μM, BSA 100 pM
Experimental: as §3, §4

[8] = Stability toward spontaneous hydrolysis in thrombin buffer; assay type: physicochemical; conditions: incubation with thrombin buffer (Tris pH 8.3), 24° C.
Experimental: A. Absorption spectra of resorufin and compound 1 of the present invention; B. Enzymatic hydrolysis of 1 (5 μM) in the presence of thrombin (100 pM) with Tris buffer pH 8.3 (λex=570 nm; λem=583 nm) at 24° C.; inset: full emission spectra recorded after 60 min, with and without enzyme; C.
The photophysical properties of compound 1 of the present invention, as well as its enzymatic conversion to fluorescent product resorufin were investigated. […] It also has a negligible emission, if exited either at its maxima (480 nm) or at resorufin maxima (570 nm).

[9] = biological target: T2, thrombin; experiment: Fluorescence assay to evaluate specificity of compound 1 toward thrombin; assay type: biochemical; conditions: Compound 1 5 μM, proteases 100 pM
Experimental: as §3, §4

[10] = biological target: T3, myoglobin (Homo sapiens, UniProt P02144); experiment: Fluorescence specificity assay, myoglobin; assay type: biochemical; conditions: Compound 1 5 μM, myoglobin 100 pM
T3 sequence (P02144 1-154): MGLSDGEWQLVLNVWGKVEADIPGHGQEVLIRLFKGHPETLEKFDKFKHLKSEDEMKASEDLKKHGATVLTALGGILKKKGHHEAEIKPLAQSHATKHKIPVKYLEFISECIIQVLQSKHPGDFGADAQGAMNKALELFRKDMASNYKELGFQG
Experimental: as §3, §4

[11] = biological target: T1, factor Xa; experiment: Fluorescence specificity assay, factor Xa; assay type: biochemical; conditions: Compound 1 5 μM, factor Xa 100 pM
Experimental: as §3, §4

[12] = factor Xa substrate, Michaelis-Menten kinetic

T1 sequence (P00743 234-492 limits assumed): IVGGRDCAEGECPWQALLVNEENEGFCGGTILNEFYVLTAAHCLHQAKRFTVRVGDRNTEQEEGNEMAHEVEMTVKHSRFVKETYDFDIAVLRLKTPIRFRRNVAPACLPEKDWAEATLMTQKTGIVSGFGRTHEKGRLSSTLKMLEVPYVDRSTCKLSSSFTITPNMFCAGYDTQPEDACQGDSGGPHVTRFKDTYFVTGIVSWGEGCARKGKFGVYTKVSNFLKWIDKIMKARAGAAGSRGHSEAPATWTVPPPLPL
T1 sequence (P00743 41-180 partner limits assumed): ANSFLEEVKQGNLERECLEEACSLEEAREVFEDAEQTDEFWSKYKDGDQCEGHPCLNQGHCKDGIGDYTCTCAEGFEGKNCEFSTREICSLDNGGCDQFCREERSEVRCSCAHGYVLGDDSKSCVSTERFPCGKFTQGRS
Sequence of BSA (P02769 25-607): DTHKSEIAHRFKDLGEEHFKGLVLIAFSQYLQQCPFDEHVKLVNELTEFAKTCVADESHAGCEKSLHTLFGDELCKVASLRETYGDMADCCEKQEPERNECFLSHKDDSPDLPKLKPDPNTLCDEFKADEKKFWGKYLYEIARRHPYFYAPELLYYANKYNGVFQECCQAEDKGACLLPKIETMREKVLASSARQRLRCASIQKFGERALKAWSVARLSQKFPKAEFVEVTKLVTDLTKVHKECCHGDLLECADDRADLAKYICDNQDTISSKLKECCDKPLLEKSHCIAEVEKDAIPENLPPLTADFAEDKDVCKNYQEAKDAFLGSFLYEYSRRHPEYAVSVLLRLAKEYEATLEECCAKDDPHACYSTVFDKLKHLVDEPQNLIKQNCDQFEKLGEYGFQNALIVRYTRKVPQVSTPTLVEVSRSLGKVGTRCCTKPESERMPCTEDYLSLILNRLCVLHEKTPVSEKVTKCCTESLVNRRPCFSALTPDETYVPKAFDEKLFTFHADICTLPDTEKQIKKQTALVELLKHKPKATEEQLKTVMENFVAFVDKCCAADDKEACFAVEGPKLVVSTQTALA
Sequence of cytochrome C (P99999 whole entry, species assumed): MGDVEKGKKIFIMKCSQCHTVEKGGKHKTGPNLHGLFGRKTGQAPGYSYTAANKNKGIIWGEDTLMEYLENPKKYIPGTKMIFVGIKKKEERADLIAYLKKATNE

Molecule: O=c1ccc2nc3ccc(O)cc3oc-2c1 [resorufin, 7-Hydroxy-3H-phenoxazin-3-one]
- pKa [1]: ~6.0

- KM value (in words) ([2]; FIG. 5B): very low KM value
- catalytic efficiency (in words) ([2]; FIG. 5B): excellent catalytic efficiency
- turnover number kcat (in words) ([2]; FIG. 5B): relatively good turnover number
Molecule: BzIs-D-Arg-Gly-Arg-PABA-Res [Compound 2]

- Km [2, 12]: 5.5 µM
- kcat [2, 12]: 4.9 s⁻¹
Molecule: Cbz-D-Arg-Gly-Arg-PABA-Res [Compound 2a]

Molecule: D-Phe-Pro-Arg-PABA-Res [Compound 1]
- increase of fluorescence in response to cytochrome C [3]: negligible
- thrombin turnover compared with commercial substrate 1a [4]: did not suffer at all
- lowest detectable thrombin concentration [5]: 0.5 pM
- hydrolysis by trypsin (rate compared to thrombin) [6]: slower rate compared to thrombin
- increase of fluorescence in response to BSA [7]: negligible
- spontaneous hydrolysis / chemical stability [8]: no spontaneous hydrolysis
- specificity for thrombin compared to factor Xa [9]: 400 times
- selectivity for thrombin over trypsin ([9]; 50 mM Tris pH 8.3, 130 mM NaCl): 7.5 fold
- increase of fluorescence in response to myoglobin [10]: negligible
- increase of fluorescence in response to factor Xa [11]: negligible
